The test deals with HIF-PH2 (EGLN1) (Homo sapiens (Human), UniProt Q9GZT9). The test can be described thus: HIF-PH assay (14CO2 capture, peptide-dependent turnover). It is filed as biochemical. Particulars: enzyme inhibition against HIF-PH2; peptide-dependent percent turnover. An excerpt:
Ketoglutaric acid α-[1-^14C]-sodium salt, alpha-ketoglutaric acid sodium salt, and HPLC purified peptide may be obtained from commercial sources, e.g., Perkin-Elmer (Wellesley Mass.), Sigma-Aldrich, and SynPep Corp. (Dublin Calif.), respectively. […] For example, a HIF peptide for use in the HIF-PH assay is [methoxycoumarin]-[…]-amide. HIF-PH, e.g., HIF-PH2 (EGLN1), can be expressed in, e.g., insect Hi5 cells, and partially purified, e.g., through a SP ion exchange chromatography column. […] Reactions are initiated by addition of HIF-PH enzyme.
The peptide-dependent percent turnover is calculated by subtracting percent turnover in the absence of peptide from percent turnover in the presence of substrate peptide. Percent inhibition and IC50 are calculated using peptide-dependent percent turnover at given inhibitor concentrations. Calculation of IC50 values for each inhibitor is conducted using GraFit software (Erithacus Software Ltd., Surrey UK).
Representative compounds of the disclosure were analyzed using the HIF-PH assay described above.

From patent US8921389B2, “Naphthyridine derivatives as inhibitors of hypoxia inducible factor (HIF) hydroxylase” (Fibrogen, Inc., priority 2011, dated 2014) come the findings set out here.

pIC50: −log10 of the molar value.

Chain of HIF-PH2 (EGLN1) (Q9GZT9 whole entry): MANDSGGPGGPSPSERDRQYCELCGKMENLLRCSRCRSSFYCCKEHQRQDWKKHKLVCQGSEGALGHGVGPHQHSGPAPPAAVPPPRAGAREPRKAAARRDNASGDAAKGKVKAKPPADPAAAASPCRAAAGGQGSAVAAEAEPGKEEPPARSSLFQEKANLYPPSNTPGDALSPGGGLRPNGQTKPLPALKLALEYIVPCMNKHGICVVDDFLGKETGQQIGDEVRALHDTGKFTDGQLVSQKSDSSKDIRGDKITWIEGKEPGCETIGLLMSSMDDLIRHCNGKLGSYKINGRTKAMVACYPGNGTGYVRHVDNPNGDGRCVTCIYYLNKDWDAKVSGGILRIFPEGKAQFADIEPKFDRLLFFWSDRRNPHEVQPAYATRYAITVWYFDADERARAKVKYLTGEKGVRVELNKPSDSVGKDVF

For the compound `CC(=O)NCCNC(=O)c1ncc2ccc(=O)n(Cc3ccccc3)c2c1O` [Example 96, 1-Benzyl-8-hydroxy-2-oxo-1,2-dihydro-[1,6]naphthyridine-7-carboxylic acid (2-acetylamino-ethyl)-amide], the pIC50 (usually the negative decadic logarithm of the IC50, by convention in mol/L) is 3.86.
For `CN(CCNC(=O)c1ncc2ccc(=O)n(Cc3ccccc3)c2c1O)S(C)(=O)=O` [Example 105, 1-Benzyl-8-hydroxy-2-oxo-1,2-dihydro-[1,6]naphthyridine-7-carboxylic acid [2-(methanesulfonyl-methyl-amino)-ethyl]amide], the pIC50 is < 3.70.
The same measure for `N#Cc1nc(C(=O)NCCS(N)(=O)=O)c(O)c2c1ccc(=O)n2Cc1ccccc1` [Example 106, 1-Benzyl-5-cyano-8-hydroxy-2-oxo-1,2-dihydro-[1,6]naphthyridine-7-carboxylic acid (2-sulfamoyl-ethyl)-amide]: < 3.70; for `O=C(NCCNC(=O)C(F)(F)F)c1ncc2c(cc(-c3ccccc3)c(=O)n2Cc2ccccc2)c1O` [Example 109, 1-Benzyl-5-hydroxy-2-oxo-3-phenyl-1,2-dihydro-[1,7]naphthyridine-6-carboxylic acid [2-(2,2,2-trifluoro-acetylamino)-ethyl]-amide]: < 3.70.
Under `CCNC(=O)NCCNC(=O)c1ncc2c(cc(-c3ccccc3)c(=O)n2Cc2ccccc2)c1O` [Example 110, 1-Benzyl-5-hydroxy-2-oxo-3-phenyl-1,2-dihydro-[1,7]naphthyridine-6-carboxylic acid [2-(3-ethyl-ureido)-ethyl]-amide] stands 3.70; under `CS(=O)(=O)NCCNC(=O)c1ncc2ccc(=O)n(Cc3ccccc3)c2c1O` [Example 111, 1-Benzyl-8-hydroxy-2-oxo-1,2-dihydro-[1,6]naphthyridine-7-carboxylic acid (2-methanesulfonylamino-ethyl)-amide], < 3.70; under `Cc1nc(C(=O)NCCC(=O)O)c(O)c2c1ccc(=O)n2Cc1ccccc1` [Example 112, 3-[(1-Benzyl-8-hydroxy-5-methyl-2-oxo-1,2-dihydro-[1,6]naphthyridine-7-carbonyl)-amino]-propionic acid], < 3.70.
The same measure for `CN(CCNC(=O)c1nc(-c2ccccc2)c2c(cc(-c3ccccc3)c(=O)n2Cc2ccccc2)c1O)S(C)(=O)=O` [Example 133, 1-Benzyl-5-hydroxy-2-oxo-3,8-diphenyl-1,2-dihydro-[1,7]naphthyridine-6-carboxylic acid [2-(methanesulfonyl-methyl-amino)-ethyl]amide]: 3.70; for `CN(CCNC(=O)c1nc(-c2cccnc2)c2c(cc(-c3ccccc3)c(=O)n2Cc2ccccc2)c1O)S(C)(=O)=O` [Example 134, 1-Benzyl-5-hydroxy-2-oxo-3-phenyl-8-pyridin-3-yl-1,2-dihydro-[1,7]naphthyridine-6-carboxylic acid [2-(methanesulfonyl-methyl-amino)-ethyl]amide]: 3.70.
On to `O=C(N[C@H](Cc1ccccc1)C(=O)O)c1ncc2c(cc(-c3ccccc3)c(=O)n2Cc2ccccc2)c1O` [Example 152, (R)-2-[(1-Benzyl-5-hydroxy-2-oxo-3-phenyl-1,2-dihydro-[1,7]naphthyridine-6-carbonyl)-amino]-3-phenyl-propionic acid], for which the pIC50 was 3.99.
Under `O=C(O)CCCCNC(=O)c1nc(-c2cccnc2)c2c(cc(-c3ccccc3)c(=O)n2Cc2ccccc2)c1O` [Example 163, 5-[(1-Benzyl-5-hydroxy-2-oxo-3-phenyl-8-pyridin-3-yl-1,2-dihydro-[1,7]naphthyridine-6-carbonyl)-amino]-pentanoic acid] stands 3.70.
The same measure for `C[C@@H](c1ccccc1)n1c(=O)c(-c2ccccc2)cc2c(O)c(C(=O)NCCC(=O)O)nc(-c3cccnc3)c21` [Example 175, (S)-3-{[5-Hydroxy-2-oxo-3-phenyl-1-(1-phenyl-ethyl)-8-pyridin-3-yl-1,2-dihydro-[1,7]naphthyridine-6-carbonyl]-amino}-propionic acid]: 3.70.
The same measure for `C[C@H](c1ccccc1)n1c(=O)c(-c2ccccc2)cc2c(O)c(C(=O)NCCC(=O)O)nc(-c3cccnc3)c21` [Example 176, (R)-3-{[5-Hydroxy-2-oxo-3-phenyl-1-(1-phenyl-ethyl)-8-pyridin-3-yl-1,2-dihydro-[1,7]naphthyridine-6-carbonyl]-amino}-propionic acid]: 3.71; for `Cc1ncccc1-c1nc(C(=O)NCCC(=O)O)c(O)c2cc(-c3ccccc3)c(=O)n(Cc3ccccc3)c12` [Example 178, 3-{[1-Benzyl-5-hydroxy-8-(2-methyl-pyridin-3-yl)-2-oxo-3-phenyl-1,2-dihydro-[1,7]naphthyridine-6-carbonyl]-amino}-propionic acid]: 3.70; for `Cc1ccc(-c2nc(C(=O)NCCC(=O)O)c(O)c3cc(-c4ccccc4)c(=O)n(Cc4ccccc4)c23)cn1` [Example 179, 3-{[1-Benzyl-5-hydroxy-8-(6-methyl-pyridin-3-yl)-2-oxo-3-phenyl-1,2-dihydro-[1,7]naphthyridine-6-carbonyl]-amino}-propionic acid]: 3.75.
In turn, `O=C(O)CCNC(=O)c1nc(-c2ccc(C(F)(F)F)nc2)c2c(cc(-c3ccccc3)c(=O)n2Cc2ccccc2)c1O` [Example 180, 3-{[1-Benzyl-5-hydroxy-2-oxo-3-phenyl-8-(6-trifluoromethyl-pyridin-3-yl)-1,2-dihydro-[1,7]naphthyridine-6-carbonyl]-amino}-propionic acid] showed a pIC50 of 3.97.
The same measure for `CC(C)(CNC(=O)c1nc(-c2cccnc2)c2c(cc(-c3ccccc3)c(=O)n2Cc2ccccc2)c1O)C(=O)O` [Example 191, 3-[(1-Benzyl-5-hydroxy-2-oxo-3-phenyl-8-pyridin-3-yl-1,2-dihydro-[1,7]naphthyridine-6-carbonyl)-amino]-2,2-dimethyl-propionic acid]: 3.70; for `O=C(O)CCNC(=O)c1nc(-c2nccs2)c2c(cc(-c3ccccc3)c(=O)n2Cc2ccccc2)c1O` [Example 195, 3-[(1-Benzyl-5-hydroxy-2-oxo-3-phenyl-8-thiazol-2-yl-1,2-dihydro-[1,7]naphthyridine-6-carbonyl)-amino]-propionic acid]: 3.86.
In turn, `O=C(O)CCNC(=O)c1nc(-c2ccncc2)c2c(cc(-c3ccccc3)c(=O)n2CC2CCCCC2)c1O` [Example 198, 3-[(1-Cyclohexylmethyl-5-hydroxy-2-oxo-3-phenyl-8-pyridin-4-yl-1,2-dihydro-[1,7]naphthyridine-6-carbonyl)-amino]-propionic acid] gave a pIC50 of 3.70. The pIC50 values of the last two compounds are within 0.2 log units of each other.
Under `O=C(O)CCNC(=O)c1nc(-c2cscn2)c2c(cc(-c3ccccc3)c(=O)n2Cc2ccccc2)c1O` [Example 202, 3-[(1-Benzyl-5-hydroxy-2-oxo-3-phenyl-8-thiazol-4-yl-1,2-dihydro-[1,7]naphthyridine-6-carbonyl)-amino]-propionic acid] stands 3.70; under `O=C(O)CCNC(=O)c1nc(-c2cccnn2)c2c(cc(-c3ccccc3)c(=O)n2Cc2ccccc2)c1O` [Example 203, 3-[(1-Benzyl-5-hydroxy-2-oxo-3-phenyl-8-pyridazin-3-yl-1,2-dihydro-[1,7]naphthyridine-6-carbonyl)-amino]-propionic acid], 3.70.
In turn, `O=C(O)CCNC(=O)c1nc(-c2cccnc2)c2c(=O)n(Cc3ccccc3)ccc2c1O` [Example 206, 3-[(7-Benzyl-4-hydroxy-8-oxo-1-pyridin-3-yl-7,8-dihydro-[2,7]naphthyridine-3-carbonyl)-amino]-propionic acid] had a pIC50 of 3.70.
